In PubChem BioAssay (NCI):
Where “and” joins values, the source holds several entries; their conditions need not be identical. Identical values can stand only once.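 Step 1: Grow cells in 96-well plates. Step 2: Expose to compound for 48 hours at 5 concentrations. Step 3: Interpolate endpoints linearly; if unreached, use highest concentration. GI50 marks 50% less growth. Definition used: TGI = concentration required for complete inhibition of growth.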

How the values were obtained:
Experiment in all cases: NCI-60 cell line screen, 48 h
SK-MEL-5 melanoma = system: SK-MEL-5 melanoma
UACC-257 melanoma = system: UACC-257 melanoma
HCC-2998 colon = system: HCC-2998 colon
OVCAR-4 ovarian = system: OVCAR-4 ovarian
HOP-92 NSCLC = system: HOP-92 NSCLC
U251 CNS = system: U251 CNS
NCI-H23 lung = system: NCI-H23 lung
KM12 colon = system: KM12 colon
HT29 colon = system: HT29 colon
NCI-H460 lung = system: NCI-H460 lung

| SMILES | GI50 (SK-MEL-5 melanoma) [µM] | TGI (SK-MEL-5 melanoma) [µM] | GI50 (UACC-257 melanoma) [µM] | TGI (UACC-257 melanoma) [µM] | GI50 (HCC-2998 colon) [µM] | TGI (HCC-2998 colon) | GI50 (OVCAR-4 ovarian) [µM] | TGI (OVCAR-4 ovarian) [µM] | GI50 (HOP-92 NSCLC) [µM] | TGI (HOP-92 NSCLC) | GI50 (U251 CNS) [µM] | TGI (U251 CNS) [µM] | GI50 (NCI-H23 lung) [µM] | TGI (NCI-H23 lung) [µM] | GI50 (KM12 colon) [µM] | TGI (KM12 colon) [µM] | GI50 (HT29 colon) [µM] | TGI (HT29 colon) [µM] | GI50 (NCI-H460 lung) [µM] | TGI (NCI-H460 lung) [µM] |
| --- | --- | --- | --- | --- | --- | --- | --- | --- | --- | --- | --- | --- | --- | --- | --- | --- | --- | --- | --- | --- |
| COc1ccc(CN2C(=O)/C(=C\c3cc(OC)c(OC)c(OC)c3)c3cc(OC)ccc32)cc1 | 3.09 | 9.41 | 1.94 | 4.94 | 2.05 | 3.85 µM | 3.5 | 27.4 | 1.21 | 16.8 µM | 1.38 | 2.67 | 1.84 | 3.85 | 2.04 | 4.05 | 2.19 | 4.45 | 1.91 | 3.83 |
| O=C(CCN1CCN(c2cccc(Cl)c2)CC1)N1CCc2c([nH]c3ccccc23)C1c1cccnc1 (centres undefined) | 7.72 | 21.9 | 6.43 | 21.3 | 2.91 | 4.04 µM and 8.05 µM | 4.23 | 18.4 | 12.3 | 9.52 µM and 35.7 µM | 9.96 | 21.5 | 11.2 | 28 | 5.04 | 15.9 | 4.13 | 16.4 | – | 16.9 |
| Cc1ccc(C)c(NC(=O)C(=O)C(c2cnc3ccc([N+](=O)[O-])cc3n2)[N+](=O)[O-])c1 (centres undefined) | – | > 100 | – | > 100 | – | > 100 µM | – | 38.2 | – | > 100 µM | – | > 100 | – | > 100 | – | > 100 | – | > 100 | – | > 100 |
| Oc1c(CN2CCC(N3CCOCC3)CC2)cc(Cc2cc(CN3CCC(N4CCOCC4)CC3)c(O)c3ncccc23)c2cccnc12 | 1.59 | 5.11 | 3.62 | 16.3 | 1.52 | 13.5 µM | 0.434 | > 100 | 4.16 | 36.6 µM | 0.385 | 17.6 | 2.07 | > 100 | 0.428 | > 100 | 0.709 | 22.3 | 0.471 | 16.6 |
| CC(=O)N1CCC2(C=Nc3ccccc32)CC1 | – | > 100 | – | > 100 | – | > 100 µM | – | > 100 | – | > 100 µM | – | > 100 | – | > 100 | – | > 100 | – | > 100 | – | > 100 |
| CCN(CC)CCCN(c1cc(OC)cc2nccnc12)S(=O)(=O)c1ccc(C)cc1 | – | > 100 | – | > 100 | – | > 100 µM | – | > 100 | – | > 100 µM | – | > 100 | – | > 100 | – | > 100 | – | > 100 | – | > 100 |
